Paper PMC3726007 (Journal of medicinal chemistry, 2009)
Entries after “also recorded” stand apart in the source; their conditions may differ. Where a name gives a salt, the structure may show the parent alone.

Key:
[1] = target: DTBZ binding site on VMAT2 (Rattus norvegicus, UniProt Q01827); assay: [3H]DTBZ binding assay in rat brain synaptic vesicles; conditions: for fold less potent at DTBZ binding site than comparator: 7 vs 2, 26 vs 25
VMAT2 = VMAT2 (Rattus norvegicus, UniProt Q01827); assay: [3H]-DA uptake inhibition assay in isolated synaptic vesicles; conditions: for fold less potent in [3H]-DA uptake inhibition than comparator: 7 vs 2, 26 vs 25; for fold more potent in inhibiting [3H]-DA uptake than in binding to the DTBZ binding site: uptake vs DTBZ binding; for fold more potent in [3H]-DA uptake inhibition than S-configured analogs: 18 and 19 vs 14 and 15
Chain of VMAT2 (Q01827 whole entry): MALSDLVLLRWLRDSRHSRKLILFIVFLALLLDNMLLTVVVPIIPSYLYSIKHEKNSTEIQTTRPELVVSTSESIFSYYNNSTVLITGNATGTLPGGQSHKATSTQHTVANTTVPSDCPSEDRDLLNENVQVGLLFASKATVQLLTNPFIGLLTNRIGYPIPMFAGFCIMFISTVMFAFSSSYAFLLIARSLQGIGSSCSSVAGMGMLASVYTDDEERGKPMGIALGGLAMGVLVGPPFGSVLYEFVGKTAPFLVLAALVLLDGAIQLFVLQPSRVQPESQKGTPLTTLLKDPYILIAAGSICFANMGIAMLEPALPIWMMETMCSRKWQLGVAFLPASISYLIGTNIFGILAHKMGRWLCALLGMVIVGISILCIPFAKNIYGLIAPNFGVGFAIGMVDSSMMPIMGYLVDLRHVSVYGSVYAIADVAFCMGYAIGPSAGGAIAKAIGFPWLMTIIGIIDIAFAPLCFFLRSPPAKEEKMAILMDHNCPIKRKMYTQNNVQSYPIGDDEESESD

[2] = tested on: α4β2* nicotinic acetylcholine receptors (nAChRs); conditions: cited from earlier work
[3] = tested on: methamphetamine self-administration; conditions: animal models; cited from earlier work
water solubility = format: physicochemical; conditions: qualitative statement

Chain of DTBZ binding site on VMAT2 (Q01827 whole entry): as above

SMILES: CN1[C@H](CCCc2ccccc2)CC[C@@H]1CCCc1ccccc1 [Compound 26, 1-Methyl-cis-2,5-di(3-phenylpropyl)-pyrrolidine hydrochloride]
- fold less potent at DTBZ binding site than comparator [1]: 10 fold
- fold less potent in [3H]-DA uptake inhibition than comparator (VMAT2): about 10 fold
- fold more potent in inhibiting [3H]-DA uptake than in binding to the DTBZ binding site (VMAT2): about 20 fold

SMILES: c1ccc(CC[C@@H]2CC[C@H](CCc3ccccc3)N2)cc1 [Compound 6, cis-2,5-Di-(2-phenethyl)-pyrrolidine hydrochloride]
- fold more potent in inhibiting [3H]-DA uptake than in binding to the DTBZ binding site (VMAT2): about 100 fold

SMILES: CN1[C@@H](CCc2ccccc2)CCC[C@H]1CCc1ccccc1 [Compound 2, cis-N-methyl-2,6-diphenethylpiperidine]
- affinity for α4β2* nAChRs [2]: little affinity
- effect on self-administration [3]: decreases methamphetamine self-administration; also recorded: does not itself support self-administration

SMILES: CN1[C@@H](CC(=O)c2ccccc2)CCC[C@H]1C[C@H](O)c1ccccc1 [Compound 1, lobeline]
- affinity for α4β2* nAChRs [2]: high potency

SMILES: c1ccc(C[C@H]2CC[C@@H](Cc3ccccc3)N2)cc1 [Compound 22, cis-2,5-Di(2-benzyl)-pyrrolidine hydrochloride]
- water solubility (water solubility): water-soluble

SMILES: OC[C@@H](c1ccccc1)N1[C@H](CCc2ccccc2)CC[C@@H]1CCc1ccccc1 [Compound 18, (2′R)-2-(2S,5R)-2,5-Di-(2-phenethyl)-tetrahydro-1H-1-pyrrolyl-2-phenylethan-1-ol]
- fold more potent in [3H]-DA uptake inhibition than S-configured analogs (VMAT2): about 10 fold

SMILES: c1ccc(CC[C@H]2CCC[C@@H](CCc3ccccc3)N2)cc1 [Compound 3, reference compound]
- fold more potent in inhibiting [3H]-DA uptake than in binding to the DTBZ binding site (VMAT2): about 100 fold

SMILES: c1ccc(CC[C@H]2CC[C@H](CCc3ccccc3)N2)cc1 [Compound 10, (2S,5S)-di-(2-phenethyl)-pyrrolidine hydrochloride]
- fold more potent at DTBZ binding site than N-methyl derivative ([1]; 10 vs 11): about 10 fold

SMILES: c1ccc(CCC[C@@H]2CC[C@H](CCCc3ccccc3)N2)cc1 [Compound 25, Cis-2,5-di(3-phenylpropyl)-pyrrolidine hydrochloride]
- fold more potent in inhibiting [3H]-DA uptake than in binding to the DTBZ binding site (VMAT2): about 20 fold

SMILES: OC[C@@H](c1ccccc1)N1[C@@H](CCc2ccccc2)CC[C@@H]1CCc1ccccc1 [Compound 19, (2′R)-2-(2S,5S)-2,5-Di(2-phenethyl)-tetrahydro-1H-1-pyrrolyl-2-phenylethan-1-ol]
- fold more potent in [3H]-DA uptake inhibition than S-configured analogs (VMAT2): about 10 fold

SMILES: CN1[C@H](CCc2ccccc2)CC[C@@H]1CCc1ccccc1 [Compound 7, 1-Methyl-cis-2,5-di-(2-phenethyl)-pyrrolidine hydrochloride]
- fold less potent at DTBZ binding site than comparator [1]: about 10 fold
- fold less potent in [3H]-DA uptake inhibition than comparator (VMAT2): 10 fold
- fold more potent in inhibiting [3H]-DA uptake than in binding to the DTBZ binding site (VMAT2): about 30 fold
